Reference: article PMC8707786 (Pharmaceutics, 2021)
Where two headings read alike, the source gives them in different places.

Key:
in vivo = settings: male, Wistar, rat, po, 100 mg/kg, Cl/F (apparent plasma clearance)
[1] = rat, in vivo
[2] = Pharmacokinetics of sorafenib and sorafenib N-oxide in rat plasma (HPLC-UV), sorafenib alone or with morphine; settings: for increase of AUC0–t in the presence of morphine / increase of Cmax in the presence of morphine: ISOR+MF vs. IISOR, rats; for ratio sorafenib N-oxide/sorafenib, Cmax: metabolite/parent ratio; for AUC0–t / AUC0–∞ / Cmax: rat plasma; for Cmax: mean ± SD
[3] = geometric mean ratio of the metabolite/parent ratio
[4] = geometric mean ratio, sorafenib + morphine vs. sorafenib alone
[5] = sorafenib 100 mg/kg p.o. + morphine 5 mg/kg i.p. (ISOR+MF, n = 8)
[6] = sorafenib 100 mg/kg p.o. alone (IISOR, n = 8)

## CNC(=O)c1cc(Oc2ccc(NC(=O)Nc3ccc(Cl)c(C(F)(F)F)c3)cc2)ccn1 [sorafenib]
In vivo
  CL/F: 13.3 mL/min/kg
[1]; male, Wistar
  lower clearance in the ISOR+MF group: 0.4 fold
[1]; male, Wistar, po, 100 mg/kg
  AUC0–∞: 67050 ± 16700 ng·h/mL
[1]
  AUC0–t/(D/kg): 1.25 ± 0.32 µg·kg·h/mL/mg
  AUC0–∞/(D/kg): 1.33 ± 0.33 µg·kg·h/mL/mg
[1]; po, 100 mg/kg
  adverse effects: did not cause any adverse effects

## CNC(=O)c1cc(Oc2ccc(NC(=O)Nc3ccc(Cl)c(C(F)(F)F)c3)cc2)cc[n+]1[O-] [sorafenib N-oxide]
[2]
  increase of AUC0–t in the presence of morphine: 61.9%
  increase of Cmax in the presence of morphine: 145.5%
[2]; 'higher by'
  increase of AUC0–t in the presence of morphine: 0.6 fold
  increase of Cmax in the presence of morphine: 1.5 fold
[2]; [3]
  ratio sorafenib N-oxide/sorafenib, AUC0–t: Gmean ratio (90% CI) ISOR+MF vs. IISOR: 1.07 (0.70; 1.65)
  ratio sorafenib N-oxide/sorafenib, AUC0–∞: Gmean ratio (90% CI) ISOR+MF vs. IISOR: 0.89 (0.53; 1.51)
  ratio sorafenib N-oxide/sorafenib, Cmax: Gmean ratio (90% CI) ISOR+MF vs. IISOR: 1.03 (0.67; 1.61)
[2]; [4]
  AUC0–t Gmean ratio (90% CI) ISOR+MF vs. IISOR: 1.64 (1.14; 2.36)
  AUC0–∞ Gmean ratio (90% CI) ISOR+MF vs. IISOR: 1.41 (0.95; 2.08)
  Cmax Gmean ratio (90% CI) ISOR+MF vs. IISOR: 2.15 (1.50; 3.08)
  kel Gmean ratio (90% CI) ISOR+MF vs. IISOR: 0.80 (0.47; 1.36)
  t1/2 Gmean ratio (90% CI) ISOR+MF vs. IISOR: 1.25 (0.73; 2.13)
  tmax Gmean ratio (90% CI) ISOR+MF vs. IISOR: 0.76 (0.41; 1.39)
[2]; sorafenib + morphine (ISOR+MF, n = 8)
  ratio sorafenib N-oxide/sorafenib, Cmax: 0.09 ± 0.07 (76.2) µg/mL
[2]; sorafenib alone (IISOR, n = 8)
  ratio sorafenib N-oxide/sorafenib, Cmax: 0.07 ± 0.02 (26.8) µg/mL
[2]; [5]
  AUC0–t: 6.64 ± 2.44 (36.8) µg × h/mL
  AUC0–∞: 9.39 ± 2.97 (31.6) µg × h/mL
  Cmax: 0.27 ± 0.16 (57.5) µg/mL
  kel (elimination rate constant): 0.023 ± 0.012 (51.6) h^−1
  t1/2 (elimination phase): 39.30 ± 22.54 (57.4) h
  tmax: 14.50 ± 11.40 (78.6) h
[2]; [6]
  AUC0–t: 4.10 ± 1.56 (38.1) µg × h/mL
  AUC0–∞: 8.61 ± 2.19 (25.4) µg × h/mL
  Cmax: 0.11 ± 0.02 (21.8) µg/mL
  kel (elimination rate constant): 0.016 ± 0.010 (60.9) h^−1
  t1/2 (elimination phase): 53.31 ± 25.23 (47.3) h
  tmax: 16.38 ± 8.21 (50.1) h
